Source: patent US11026945B2, “Protein kinase RNA-like endoplasmic reticulum kinase (PERK) inhibitors for prevention and/or treatment of lung injury and/or inflammation” (THE TRUSTEES OF THE UNIVERSITY OF PENNSYLVANIA, priority 2016, dated 2021)
Read-outs that look alike come from different tables or passages of the source.

Key:
[1] = tested on: rat model of VILI
Description: To establish the feasibility of translating the in vitro findings to in vivo, a rat model of VILI was used. Animals were pretreated via oral gavage with either 30 mg/kg PI or its vehicle for 4 hours prior to the start of the experiment. Rats were ventilated with 20 ml/kg tidal volume via tracheostomy for 4 hours without positive end expiratory pressure (PEEP) or a recruitment maneuver to induce injury. The lung tissue of ventilated animals was compared to spontaneously breathing controls. […] To confirm these findings, immunofluorescence analysis of thin cut sections was performed using a Zeiss LSM 880 laser scanning confocal microscope (FIG. 19).
Groups of animals (Sprague-Drawly rats, 250 to 300 g weight purchased from Charles River Laboratories, N=150)) were pretreated with one time dose of 3, 10 and 30 mg/kg of PI (GSK2606414) or its vehicle (0.1% TWEEN 80 in 0.5% […]) via oral gavage 4 hours before the start of the experiment. Subsequently, animals were randomized in the following conditions: • 1. Non-ventilated controls pretreated with drug vehicle (C/VC). These animals were sacrificed 8 hours post gavage. • 2. Low tidal volume ventilation group pretreated with vehicle (LTV/VC). These animals were anesthetized 4 hours post gavage and ventilated via tracheostomy for 4 hours with 6 ml/kg tidal volume, 3-5 cmH2O PEEP and lungs were recruited with 30 cmH2O pressure of air hourly. Animals were sacrificed at the end of 4 hours ventilation. This group will served as a second control to assess lung injury parameters in an optimized ICU care situation. • 3. High tidal volume ventilation group pretreated with vehicle (HTV/VC). Animals were ventilated with 20 ml/kg tidal volume without PEEP or recruitment maneuver to induce lung injury and sacrificed at the end of mechanical ventilation period. • 4. Controls with PI treatment (C/PI). Animals were sacrificed after 8 hours of PI treatment. • 5. High tidal volume mechanical ventilation with PI treatment (HTV/PI). Animals were sacrificed at the end of mechanical ventilation period. At the end of the experiment, lung tissue, BAL and serum was collected from all animals. To determine the optimal dose of PI in VILI, the following parameters were measured: BAL total protein measurement (BioRad Protein Assay, BioRad, Hercules, Calif.); lung tissue histology with hematoxylin-eosin (H&E) staining for lung injury scoring; BAL total and differential cell count; Serum and BAL cytokine analysis for IL-18 (R&D Systems, Minneapolis, Minn., USA); lung tissue was collected for future RNA and protein expression studies; blood pressure and heart rate recording (Coda Monitor, Kent Scientific, Torrington, Conn.); and/or animal mortality prior to the end of the experiment.
Rats (N=32) received PERK inhibitor GSK 2606414 (PI) or vehicle control (0.1% Tween 80+0.5% hydroxypropyl-methylcellulose (VC)) via oral gavage 4 hours before the start of mechanical ventilation in 2.5 ml volume bolus. Subsequently, animals were randomized to receive mechanical ventilation, or they were let to breathe spontaneously (N=8/group). For the mechanical ventilation protocol, rats were kept under general anesthesia for the entire procedure. Their breathing, cardiac function and neurological responses were continuously monitored to minimize pain and distress. Induction and maintenance anesthesia was performed with inhaled 2-4% isoflurane. If additional anesthesia was necessary to keep the animal in surgical plane at the time of induction, it was given an intraperitoneal injection of a mixture of ketamine (75-100 mg/kg) and xylazine (5-10 mg/kg). To minimize injectable anesthesia and improve analgesia use, the subcutaneous tissue of the tracheostomy site was injected with 1% lidocaine.

[2] = tested on: AEC-I monolayers; assay: Stretch-induced cell death, ethidium homodimer staining; format: cell-based, rat; settings: stretched monolayers, 1 μM PI pretreatment
Description: To assess the effect of ISR inhibition on stretch-induced cell death, dead to live cell ratio was quantified with triple Ethidium homodimer (dead cells)-Calcinein (live cells) and nuclear (DAPI) stain (Thermo Fisher Scientific). Fluorescent light emission from cells was captured with fluorescent microscopy and quantified in the same fashion as described in the “Mechanical stretch activates ISR and cell death in AEC-I” section. N=30 rats were used to obtain data from N=5 biological replicates/condition for each treatment group. Data was expressed as the number of dead cells per total cells as depicted in FIG. 3G. […]
To measure permeability, the silastic membranes were coated with biotinylated fibronectin and cells were cultured on the apical surface. […] Light emission at 488 nm was measured for monolayers using fluorescent microscopy (Nikon TE300, Melville, N.Y.). […] The emitted fluorescence is proportional to the monolayer damage caused by stretch and is detectable by fluorescent microscopy. […] The maximum pixel intensity in the background of unstretched-untreated monolayers was measured and used as a threshold to exclude unstained regions. The percentage of each image area above the threshold intensity was determined and then divided by the value for the unstretched control group to calculate the normalized area percentage (nArea) of each image. […] Data were expressed as ±SEM. […]

[3] = CPI: spontaneously breathing rats, 30 mg/kg four hours prior to sacrifice
[4] = VPI: rats ventilated 4 hours with 20 ml/kg tidal volume, 30 mg/kg four hours prior to ventilation
[5] = ventilated rats, 30 mg/kg PI oral
[6] = ventilated rats, 30 mg/kg oral gavage

## Cn1cc(-c2ccc3c(c2)CCN3C(=O)Cc2cccc(C(F)(F)F)c2)c2c(N)ncnc21 [PI, 1-[5-(4-Amino-7-methyl-7H-pyrrolo[2,3-d]pyrimidin-5-yl)indolin-1-yl]-2-(3-trifluoromethylphenyl)ethanone]
[1]; [3]
  Macrophage cell count: 0.77 ± 0.17 ×10^3 cells/ml BAL
  Neutrophil cell count: 0.003 ± 0.003 ×10^3 cells/ml BAL
  Total cell count: 1.44 ± 0.23 ×10^3 cells/ml BAL
[1]; VPI vs V, 30 mg/kg oral gavage
  FITC-labeled albumin permeability index: decreased
[1]; [4]
  Macrophage cell count: 1.28 ± 0.26 ×10^3 cells/ml BAL
  Neutrophil cell count: 0.03 ± 0.009 ×10^3 cells/ml BAL
  Total cell count: 1.75 ± 0.14 ×10^3 cells/ml BAL
[1]; dose titration 3, 10 and 30 mg/kg, oral gavage 4 hours before ventilation
  dose sufficient to inhibit VILI: 10 mg/kg
[1]; dose titration 3-30 mg/kg, experiment partially completed
  alveolocapillary permeability in VILI (FITC-labeled albumin extravasation), effect of increasing dose: gradual effect on reducing alveolocapillary permeability
[1]; spontaneously breathing animals, 30 mg/kg
  immunosuppression (BAL cell count): did not result in immunosuppression
[1]; [5]
  Ventilation-induced BAL total protein content: significantly reduced
  lung injury score: significantly reduced
[1]; [6]
  IL-18 BAL levels: reduced
  serum IL-18 levels: did not affect
[2]
  stretch-induced cell death: decreased
